In patent publication US12582607B2, “Implantable medical devices for extended release of therapeutic agents” (Nano Precision Medical, Inc., priority 2014, dated 2026):
Values belong to the compound of their own block, whether it stands above or below them.

Tests used:
[1] = In vitro release of stabilizers from implantable devices and disassembly of the devices (Contemplated Examples); type: physicochemical; settings: for pH maintained inside device: disassembly of devices at 2 months, 26 mM bis-tris buffer, 154 mM NaCl; for pH maintained inside device / duration for which stabilizer level (pH or concentration) is maintained in device: 37° C.; for release rate profile of stabilizer out of device through nanoporous membrane: in vitro testing, reverse phase HPLC; for duration for which stabilizer level (pH or concentration) is maintained in device: in vitro
Text: In the examples below the devices that are used include titanium capsules of approximately 25 mm length and 2.25 mm diameter. A titanium substrate with a titanium oxide nanoporous membrane is welded to one end of the device. […] A silicone septum is located at the other end of the device. Extended-release configurations of stabilizers, prepared as described further below, are incorporated into the reservoirs before final attachment of the membrane and septum on the device. A formulation solvent is filled into the device as per methods in PCT/US2021/019559. Briefly, the formulation solvent is loaded into a filler apparatus with a hollow needle to pierce the septum. A vacuum is applied to the membrane of the device to reduce the pressure inside the reservoir, and the formulation is injected through the septum into the reservoir through the needle. The durability of the presence of stabilizers inside devices of the disclosure may be tested by measuring release of the stabilizers from the devices in vitro. In vitro testing is performed by submerging the devices in 3 ml of a 26 mM bis-tris buffer, 154 mM NaCl on a shaker plate at 37° C. and measuring the amounts of stabilizer released at regular intervals by reverse phase HPLC.

[2] = cited from earlier work
[3] = Forced degradation study of exenatide with and without PLGA in titanium reservoirs with nanotube membrane; purity of released exenatide by HPLC; type: physicochemical; settings: 37 C, devices in PBS pH 7.4 with full access to air; for Exenatide purity over time (% purity), 7 days: day 7; for Exenatide purity over time (% purity), 14 days: day 14; for Exenatide purity over time (% purity), 28 days: day 28; for Exenatide purity over time (% purity), 35 days: day 35; for Exenatide purity over time (% purity), 42 days: day 42; for Exenatide purity over time (% purity), 56 days: day 56
Description: To avoid confounding factors, no other stabilizers were used in the study.
The devices were incubated in phosphate buffered saline (pH 7.4) under full access to air (oxygen).

Compound: O=C(O)c1ccccc1 [benzoic acid]
pH maintained inside device [1]: below 6
release rate profile of stabilizer out of device through nanoporous membrane [1]: declining with approximately the square root of time
duration for which stabilizer level (pH or concentration) is maintained in device [1]: at least 2 months

Compound: Cc1cc(C(C)(C)C)c(O)c(C(C)(C)C)c1 [butylated hydroxytoluene]
reported solubility in water [2]: about 1 ppm

pH maintained inside device [1]: above 8
duration for which stabilizer level (pH or concentration) is maintained in device [1]: at least 2 months
Compound: [H]/N=C(\N/C(=N/[H])NCCCCCCNC(=N)NC(=N)Nc1ccc(Cl)cc1)Nc1ccc(Cl)cc1 [chlorhexidine, Chlorhexidine]
release rate profile of stabilizer out of device through nanoporous membrane [1]: declining with approximately the square root of time

stabilizer concentration maintained in device ([1]; disassembly of devices at 4 months): at least 0.05%
release rate profile of stabilizer out of device through nanoporous membrane [1]: approximately constant rate
duration for which stabilizer level (pH or concentration) is maintained in device [1]: at least 4 months
Compound: Oc1ccc(O)cc1 [hydroquinone, Hydroquinone]

stabilizer concentration maintained in device ([1]; disassembly of devices at 3 months): at least 0.05%
duration for which stabilizer level (pH or concentration) is maintained in device [1]: at least 3 months
Compound: CCCOC(=O)c1cc(O)c(O)c(O)c1 [propyl gallate]
release rate profile of stabilizer out of device through nanoporous membrane [1]: declining with approximately the square root of time

Compound: Exenatide only (Irradiated): E-beam irradiated (25k Gray) exenatide solution 200 mg/ml, no PLGA
Exenatide purity over time (% purity), 7 days [3]: 96 % purity
Exenatide purity over time (% purity), 14 days [3]: 91 % purity
Exenatide purity over time (% purity), 28 days [3]: 82 % purity
Exenatide purity over time (% purity), 35 days [3]: 75 % purity
Exenatide purity over time (% purity), 42 days [3]: 66 % purity
Exenatide purity over time (% purity), 56 days [3]: 51 % purity

Compound: Exenatide only: 20% (w/v) exenatide solution in Water For Injection with 0.04% NaN3, no PLGA, non-irradiated
Exenatide purity over time (% purity), 7 days [3]: 99 % purity
Exenatide purity over time (% purity), 14 days [3]: 89 % purity
Exenatide purity over time (% purity), 28 days [3]: 87 % purity
Exenatide purity over time (% purity), 35 days [3]: 82 % purity
Exenatide purity over time (% purity), 42 days [3]: 72 % purity
Exenatide purity over time (% purity), 56 days [3]: 62 % purity
